# Measurements reported in PubChem BioAssay (NCI).
#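 All cell lines were grown in 96-well plates and treated with compound for 48 hours. TGI: total growth inhibition.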
# Tested on: OVCAR-3 ovarian
# Test: NCI-60 cell line screen, 48 h
row,SMILES,TGI
1,CC(C)(C)OC(=O)N(CCCCN(CCCNC(=O)C(F)(F)F)C(=O)OC(C)(C)C)CCCNC(=O)C(F)(F)F,> 100 µM
2,O=C(Nc1ccccc1)c1cc(S(=O)(=O)NC2=NC(c3ccccc3)c3cc(Cl)ccc3N2)c(SSc2cc(Cl)c(C(=O)Nc3ccccc3)cc2S(=O)(=O)NC2=NC(c3ccccc3)c3cc(Cl)ccc3N2)cc1Cl (stereo not given),> 100 µM
3,Cc1[nH]c(=O)nc2nc3ccc(Cl)cc3c(NCCNCCO)c12,25.2 µM
4,COc1ccc(C2SC(N)=Nc3c2c(C)nn3C(=O)c2ccncc2)cc1OC (stereo not given),> 10 µM
5,O=c1oc2ccc3ccccc3c2cc1-c1nc2ccccc2s1,> 100 µM
6,CC(C)(C)OC(=O)NC1CCCCC1NC(=O)C(=O)NC1CCCCC1NC(=O)OC(C)(C)C (stereo not given),> 100 µM
7,COc1cc(C2c3cc4c(cc3OC(N3CCCCC3)C2C)OCO4)cc(OC)c1O (stereo not given),19.8 µM
8,COC(=O)c1ccc(/C=C/c2cc(O)ccc2O)cc1,6.86 µM
9,Brc1ccc2[nH]cc(-c3csc(-c4c[nH]c5ccccc45)n3)c2c1,11.8 µM
10,COc1cc(OC)cc(Oc2nc3ccccc3nc2C(F)(F)F)c1,> 100 µM

# Tested on: OVCAR-5 ovarian
# Test: NCI-60 cell line screen, 48 h
row,SMILES,TGI
1,CC(C)(C)OC(=O)N(CCCCN(CCCNC(=O)C(F)(F)F)C(=O)OC(C)(C)C)CCCNC(=O)C(F)(F)F,> 100 µM
2,O=C(Nc1ccccc1)c1cc(S(=O)(=O)NC2=NC(c3ccccc3)c3cc(Cl)ccc3N2)c(SSc2cc(Cl)c(C(=O)Nc3ccccc3)cc2S(=O)(=O)NC2=NC(c3ccccc3)c3cc(Cl)ccc3N2)cc1Cl (stereo not given),> 100 µM
3,Cc1[nH]c(=O)nc2nc3ccc(Cl)cc3c(NCCNCCO)c12,26.1 µM
4,COc1ccc(C2SC(N)=Nc3c2c(C)nn3C(=O)c2ccncc2)cc1OC (stereo not given),> 10 µM
5,O=c1oc2ccc3ccccc3c2cc1-c1nc2ccccc2s1,> 100 µM
6,CC(C)(C)OC(=O)NC1CCCCC1NC(=O)C(=O)NC1CCCCC1NC(=O)OC(C)(C)C (stereo not given),> 100 µM
7,COc1cc(C2c3cc4c(cc3OC(N3CCCCC3)C2C)OCO4)cc(OC)c1O (stereo not given),41.3 µM
8,COC(=O)c1ccc(/C=C/c2cc(O)ccc2O)cc1,70.3 µM
9,Brc1ccc2[nH]cc(-c3csc(-c4c[nH]c5ccccc45)n3)c2c1,4.86 µM
10,COc1cc(OC)cc(Oc2nc3ccccc3nc2C(F)(F)F)c1,> 100 µM

# Tested on: OVCAR-8 ovarian
# Test: NCI-60 cell line screen, 48 h
row,SMILES,TGI
1,CC(C)(C)OC(=O)N(CCCCN(CCCNC(=O)C(F)(F)F)C(=O)OC(C)(C)C)CCCNC(=O)C(F)(F)F,> 100 µM
2,O=C(Nc1ccccc1)c1cc(S(=O)(=O)NC2=NC(c3ccccc3)c3cc(Cl)ccc3N2)c(SSc2cc(Cl)c(C(=O)Nc3ccccc3)cc2S(=O)(=O)NC2=NC(c3ccccc3)c3cc(Cl)ccc3N2)cc1Cl (stereo not given),> 100 µM
3,Cc1[nH]c(=O)nc2nc3ccc(Cl)cc3c(NCCNCCO)c12,21.6 µM
4,COc1ccc(C2SC(N)=Nc3c2c(C)nn3C(=O)c2ccncc2)cc1OC (stereo not given),> 10 µM
5,O=c1oc2ccc3ccccc3c2cc1-c1nc2ccccc2s1,> 100 µM
6,CC(C)(C)OC(=O)NC1CCCCC1NC(=O)C(=O)NC1CCCCC1NC(=O)OC(C)(C)C (stereo not given),> 100 µM
7,COc1cc(C2c3cc4c(cc3OC(N3CCCCC3)C2C)OCO4)cc(OC)c1O (stereo not given),36.7 µM
8,COC(=O)c1ccc(/C=C/c2cc(O)ccc2O)cc1,18.4 µM
9,Brc1ccc2[nH]cc(-c3csc(-c4c[nH]c5ccccc45)n3)c2c1,21.2 µM
10,COc1cc(OC)cc(Oc2nc3ccccc3nc2C(F)(F)F)c1,> 100 µM

# Tested on: PC-3 prostate
# Test: NCI-60 cell line screen, 48 h
row,SMILES,TGI
1,CC(C)(C)OC(=O)N(CCCCN(CCCNC(=O)C(F)(F)F)C(=O)OC(C)(C)C)CCCNC(=O)C(F)(F)F,> 100 µM
2,O=C(Nc1ccccc1)c1cc(S(=O)(=O)NC2=NC(c3ccccc3)c3cc(Cl)ccc3N2)c(SSc2cc(Cl)c(C(=O)Nc3ccccc3)cc2S(=O)(=O)NC2=NC(c3ccccc3)c3cc(Cl)ccc3N2)cc1Cl (stereo not given),> 100 µM
3,Cc1[nH]c(=O)nc2nc3ccc(Cl)cc3c(NCCNCCO)c12,27.4 µM
4,COc1ccc(C2SC(N)=Nc3c2c(C)nn3C(=O)c2ccncc2)cc1OC (stereo not given),> 10 µM
5,O=c1oc2ccc3ccccc3c2cc1-c1nc2ccccc2s1,> 100 µM
6,CC(C)(C)OC(=O)NC1CCCCC1NC(=O)C(=O)NC1CCCCC1NC(=O)OC(C)(C)C (stereo not given),> 100 µM
7,COc1cc(C2c3cc4c(cc3OC(N3CCCCC3)C2C)OCO4)cc(OC)c1O (stereo not given),22.2 µM
8,COC(=O)c1ccc(/C=C/c2cc(O)ccc2O)cc1,22.2 µM
9,Brc1ccc2[nH]cc(-c3csc(-c4c[nH]c5ccccc45)n3)c2c1,10.2 µM
10,COc1cc(OC)cc(Oc2nc3ccccc3nc2C(F)(F)F)c1,> 100 µM

# Tested on: RPMI-8226 leukemia
# Test: NCI-60 cell line screen, 48 h
row,SMILES,TGI
1,CC(C)(C)OC(=O)N(CCCCN(CCCNC(=O)C(F)(F)F)C(=O)OC(C)(C)C)CCCNC(=O)C(F)(F)F,> 100 µM
2,O=C(Nc1ccccc1)c1cc(S(=O)(=O)NC2=NC(c3ccccc3)c3cc(Cl)ccc3N2)c(SSc2cc(Cl)c(C(=O)Nc3ccccc3)cc2S(=O)(=O)NC2=NC(c3ccccc3)c3cc(Cl)ccc3N2)cc1Cl (stereo not given),> 100 µM
3,Cc1[nH]c(=O)nc2nc3ccc(Cl)cc3c(NCCNCCO)c12,> 100 µM
4,COc1ccc(C2SC(N)=Nc3c2c(C)nn3C(=O)c2ccncc2)cc1OC (stereo not given),> 10 µM
5,O=c1oc2ccc3ccccc3c2cc1-c1nc2ccccc2s1,> 32.8 µM
6,CC(C)(C)OC(=O)NC1CCCCC1NC(=O)C(=O)NC1CCCCC1NC(=O)OC(C)(C)C (stereo not given),> 100 µM
7,COc1cc(C2c3cc4c(cc3OC(N3CCCCC3)C2C)OCO4)cc(OC)c1O (stereo not given),> 76.3 µM
8,COC(=O)c1ccc(/C=C/c2cc(O)ccc2O)cc1,4.14 µM
9,Brc1ccc2[nH]cc(-c3csc(-c4c[nH]c5ccccc45)n3)c2c1,12.1 µM
10,COc1cc(OC)cc(Oc2nc3ccccc3nc2C(F)(F)F)c1,> 100 µM

# Tested on: SK-MEL-28 melanoma
# Test: NCI-60 cell line screen, 48 h
row,SMILES,TGI
1,CC(C)(C)OC(=O)N(CCCCN(CCCNC(=O)C(F)(F)F)C(=O)OC(C)(C)C)CCCNC(=O)C(F)(F)F,> 100 µM
2,O=C(Nc1ccccc1)c1cc(S(=O)(=O)NC2=NC(c3ccccc3)c3cc(Cl)ccc3N2)c(SSc2cc(Cl)c(C(=O)Nc3ccccc3)cc2S(=O)(=O)NC2=NC(c3ccccc3)c3cc(Cl)ccc3N2)cc1Cl (stereo not given),> 100 µM
3,Cc1[nH]c(=O)nc2nc3ccc(Cl)cc3c(NCCNCCO)c12,31.8 µM
4,COc1ccc(C2SC(N)=Nc3c2c(C)nn3C(=O)c2ccncc2)cc1OC (stereo not given),> 10 µM
5,O=c1oc2ccc3ccccc3c2cc1-c1nc2ccccc2s1,> 100 µM
6,CC(C)(C)OC(=O)NC1CCCCC1NC(=O)C(=O)NC1CCCCC1NC(=O)OC(C)(C)C (stereo not given),> 100 µM
7,COc1cc(C2c3cc4c(cc3OC(N3CCCCC3)C2C)OCO4)cc(OC)c1O (stereo not given),27.3 µM
8,COC(=O)c1ccc(/C=C/c2cc(O)ccc2O)cc1,43.4 µM
9,Brc1ccc2[nH]cc(-c3csc(-c4c[nH]c5ccccc45)n3)c2c1,15.3 µM
10,COc1cc(OC)cc(Oc2nc3ccccc3nc2C(F)(F)F)c1,> 100 µM

# Tested on: SK-MEL-5 melanoma
# Test: NCI-60 cell line screen, 48 h
row,SMILES,TGI
1,CC(C)(C)OC(=O)N(CCCCN(CCCNC(=O)C(F)(F)F)C(=O)OC(C)(C)C)CCCNC(=O)C(F)(F)F,> 100 µM
2,O=C(Nc1ccccc1)c1cc(S(=O)(=O)NC2=NC(c3ccccc3)c3cc(Cl)ccc3N2)c(SSc2cc(Cl)c(C(=O)Nc3ccccc3)cc2S(=O)(=O)NC2=NC(c3ccccc3)c3cc(Cl)ccc3N2)cc1Cl (stereo not given),> 100 µM
3,Cc1[nH]c(=O)nc2nc3ccc(Cl)cc3c(NCCNCCO)c12,25.4 µM
4,COc1ccc(C2SC(N)=Nc3c2c(C)nn3C(=O)c2ccncc2)cc1OC (stereo not given),> 10 µM
5,O=c1oc2ccc3ccccc3c2cc1-c1nc2ccccc2s1,> 100 µM
6,CC(C)(C)OC(=O)NC1CCCCC1NC(=O)C(=O)NC1CCCCC1NC(=O)OC(C)(C)C (stereo not given),> 100 µM
7,COc1cc(C2c3cc4c(cc3OC(N3CCCCC3)C2C)OCO4)cc(OC)c1O (stereo not given),19.8 µM
8,COC(=O)c1ccc(/C=C/c2cc(O)ccc2O)cc1,> 25.5 µM
9,Brc1ccc2[nH]cc(-c3csc(-c4c[nH]c5ccccc45)n3)c2c1,5.64 µM
10,COc1cc(OC)cc(Oc2nc3ccccc3nc2C(F)(F)F)c1,> 100 µM

# Tested on: SW-620 colon
# Test: NCI-60 cell line screen, 48 h
row,SMILES,TGI
1,CC(C)(C)OC(=O)N(CCCCN(CCCNC(=O)C(F)(F)F)C(=O)OC(C)(C)C)CCCNC(=O)C(F)(F)F,> 100 µM
2,O=C(Nc1ccccc1)c1cc(S(=O)(=O)NC2=NC(c3ccccc3)c3cc(Cl)ccc3N2)c(SSc2cc(Cl)c(C(=O)Nc3ccccc3)cc2S(=O)(=O)NC2=NC(c3ccccc3)c3cc(Cl)ccc3N2)cc1Cl (stereo not given),> 100 µM
3,Cc1[nH]c(=O)nc2nc3ccc(Cl)cc3c(NCCNCCO)c12,19.6 µM
4,COc1ccc(C2SC(N)=Nc3c2c(C)nn3C(=O)c2ccncc2)cc1OC (stereo not given),> 10 µM
5,O=c1oc2ccc3ccccc3c2cc1-c1nc2ccccc2s1,> 100 µM
6,CC(C)(C)OC(=O)NC1CCCCC1NC(=O)C(=O)NC1CCCCC1NC(=O)OC(C)(C)C (stereo not given),> 100 µM
7,COc1cc(C2c3cc4c(cc3OC(N3CCCCC3)C2C)OCO4)cc(OC)c1O (stereo not given),21.9 µM
8,COC(=O)c1ccc(/C=C/c2cc(O)ccc2O)cc1,18.6 µM
9,Brc1ccc2[nH]cc(-c3csc(-c4c[nH]c5ccccc45)n3)c2c1,8.23 µM
10,COc1cc(OC)cc(Oc2nc3ccccc3nc2C(F)(F)F)c1,> 100 µM

# Tested on: TK-10 renal
# Test: NCI-60 cell line screen, 48 h
row,SMILES,TGI
1,CC(C)(C)OC(=O)N(CCCCN(CCCNC(=O)C(F)(F)F)C(=O)OC(C)(C)C)CCCNC(=O)C(F)(F)F,> 100 µM
2,O=C(Nc1ccccc1)c1cc(S(=O)(=O)NC2=NC(c3ccccc3)c3cc(Cl)ccc3N2)c(SSc2cc(Cl)c(C(=O)Nc3ccccc3)cc2S(=O)(=O)NC2=NC(c3ccccc3)c3cc(Cl)ccc3N2)cc1Cl (stereo not given),> 100 µM
3,Cc1[nH]c(=O)nc2nc3ccc(Cl)cc3c(NCCNCCO)c12,33.1 µM
4,COc1ccc(C2SC(N)=Nc3c2c(C)nn3C(=O)c2ccncc2)cc1OC (stereo not given),> 10 µM
5,O=c1oc2ccc3ccccc3c2cc1-c1nc2ccccc2s1,> 100 µM
6,CC(C)(C)OC(=O)NC1CCCCC1NC(=O)C(=O)NC1CCCCC1NC(=O)OC(C)(C)C (stereo not given),> 100 µM
7,COc1cc(C2c3cc4c(cc3OC(N3CCCCC3)C2C)OCO4)cc(OC)c1O (stereo not given),38.5 µM
8,COC(=O)c1ccc(/C=C/c2cc(O)ccc2O)cc1,45.3 µM
9,Brc1ccc2[nH]cc(-c3csc(-c4c[nH]c5ccccc45)n3)c2c1,12 µM
10,COc1cc(OC)cc(Oc2nc3ccccc3nc2C(F)(F)F)c1,> 100 µM

# Tested on: U251 CNS
# Test: NCI-60 cell line screen, 48 h
row,SMILES,TGI
1,CC(C)(C)OC(=O)N(CCCCN(CCCNC(=O)C(F)(F)F)C(=O)OC(C)(C)C)CCCNC(=O)C(F)(F)F,> 100 µM
2,O=C(Nc1ccccc1)c1cc(S(=O)(=O)NC2=NC(c3ccccc3)c3cc(Cl)ccc3N2)c(SSc2cc(Cl)c(C(=O)Nc3ccccc3)cc2S(=O)(=O)NC2=NC(c3ccccc3)c3cc(Cl)ccc3N2)cc1Cl (stereo not given),> 100 µM
3,Cc1[nH]c(=O)nc2nc3ccc(Cl)cc3c(NCCNCCO)c12,21.2 µM
4,COc1ccc(C2SC(N)=Nc3c2c(C)nn3C(=O)c2ccncc2)cc1OC (stereo not given),> 10 µM
5,O=c1oc2ccc3ccccc3c2cc1-c1nc2ccccc2s1,> 100 µM
6,CC(C)(C)OC(=O)NC1CCCCC1NC(=O)C(=O)NC1CCCCC1NC(=O)OC(C)(C)C (stereo not given),> 100 µM
7,COc1cc(C2c3cc4c(cc3OC(N3CCCCC3)C2C)OCO4)cc(OC)c1O (stereo not given),> 64.6 µM
8,COC(=O)c1ccc(/C=C/c2cc(O)ccc2O)cc1,8.44 µM
9,Brc1ccc2[nH]cc(-c3csc(-c4c[nH]c5ccccc45)n3)c2c1,8.64 µM
10,COc1cc(OC)cc(Oc2nc3ccccc3nc2C(F)(F)F)c1,> 100 µM
